In patent publication US12286442B2, “Methods and materials for increasing transcription factor eb polypeptide levels” (University of Pittsburgh—Of the Commonwealth System of …, priority 2019, dated 2025):

Assays:
BEAS-2B cells = assay: Toxicity: compound concentration needed to induce greater than 50 percent of cell loss; type: cell-based, human; conditions: 18 hours incubation
Procedure, shortened: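 BEAS-2B cells stably expressing TFEB-EGFP treated with serial compound dilutions for 18 h, then PFA-fixed, DAPI-stained and imaged. Toxicity scored as the concentration causing >50% cell loss, binned as ≥25 μM, <25 and >1 μM, or ≤1 μM ("+++").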

TFEB = assay: High content screen measuring TFEB nuclear accumulation (TFEB nuclear/cytosol ratio) in BEAS-2B cells stably expressing TFEB-EGFP; type: cell-based, human; conditions: 18 hours incubation
Procedure, shortened: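 BEAS-2B cells stably expressing TFEB-EGFP (~2300–2500 per well) pre-incubated 8 hours, then exposed to serially diluted compounds (DMEM low glucose, 2% FBS) for 18 hours, PFA-fixed and DAPI-stained. Imaged nuclear (DAPI mask) vs cytosolic (expanded mask) TFEB-GFP; activity = minimal concentration raising nuclear/cytosol ratio by 25%.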

| Compound | toxicity (compound concentration needed to induce greater than 50 percent of cell loss) (BEAS-2B cells) | efficacy (minimal compound concentration needed to increase TFEB nuclear/cytosol ratio by 25%) (TFEB) |
| --- | --- | --- |
| c1cc(-c2nc(Nc3ccc4[nH]ccc4c3)c3cnccc3n2)ccn1 [Compound 84] | + (cell loss of greater than 50 percent at a concentration that equals or is greater than 25 μM was represented as) | +++ (“+++” equals ≤1 μM) |
| c1ccc2c(Nc3ccc4ncoc4c3)nc(-c3ccncc3)nc2c1 [Compound 142] | + (cell loss of greater than 50 percent at a concentration that equals or is greater than 25 μM was represented as) | +++ (“+++” equals ≤1 μM) |
| c1cc(-c2nc(Nc3ccc4nc(C5CC5)sc4c3)c3cnccc3n2)ccn1 [Compound 121] | + (cell loss of greater than 50 percent at a concentration that equals or is greater than 25 μM was represented as) | + (“+” equals >25 μM) |
| c1cnc2ccc(Nc3nc(-c4ccncc4)nc4ncccc34)cc2c1 [Compound 138] | + (cell loss of greater than 50 percent at a concentration that equals or is greater than 25 μM was represented as) | +++ (“+++” equals ≤1 μM) |
| COc1cc(-c2nc(Nc3cc(F)ccc3C)c3ccccc3n2)cc(OC)c1OC [Compound 198] | + (cell loss of greater than 50 percent at a concentration that equals or is greater than 25 μM was represented as) | + (“+” equals >25 μM) |
| c1ccc2c(Nc3ccc4[nH]c5c(c4c3)CCCC5)nc(-c3ccncc3)nc2c1 [Compound 73] | +++ (cell loss of greater than 50 percent at a concentration that equals or is less than 1 μM was represented as “+++.”) | +++ (“+++” equals ≤1 μM) |
| CC(C)c1nc2ccc(Nc3nc(-c4ccncc4)nc4ccc(F)cc34)cc2s1 [Compound 354] | + (cell loss of greater than 50 percent at a concentration that equals or is greater than 25 μM was represented as) | + (“+” equals >25 μM) |
| c1ccc2c(Nc3ccc4[nH]ccc4c3)nc(-c3ccncc3)cc2c1 [Compound 49] | + (cell loss of greater than 50 percent at a concentration that equals or is greater than 25 μM was represented as) | + (“+” equals >25 μM) |
| COc1ccc2nc(-c3ccncc3)nc(Nc3ccc4nc(C(C)C)sc4c3)c2c1 [Compound 352] | + (cell loss of greater than 50 percent at a concentration that equals or is greater than 25 μM was represented as) | ++ (“++” equals between ≤25 μM and >1 μM) |
| Fc1ccc2c(Nc3ccc4[nH]ccc4c3)nc(-c3ccncc3)nc2c1 [Compound 112] | + (cell loss of greater than 50 percent at a concentration that equals or is greater than 25 μM was represented as) | +++ (“+++” equals ≤1 μM) |
| c1cnc2c(Nc3ccc4[nH]ccc4c3)nc(-c3ccncc3)nc2c1 [Compound 83] | + (cell loss of greater than 50 percent at a concentration that equals or is greater than 25 μM was represented as) | ++ (“++” equals between ≤25 μM and >1 μM) |
| CCC(C)NC(=O)Cn1c(=O)n(-c2ccc(OC)cc2)c(=O)c2ccc(C(=O)NCc3ccc(C)cc3)cc21 (stereo not shown) [Compound 216] | + (cell loss of greater than 50 percent at a concentration that equals or is greater than 25 μM was represented as) | + (“+” equals >25 μM) |
| O=C1NC(=O)c2cc(Nc3nc(-c4ccncc4)nc4ccccc34)ccc21 [Compound 33] | + (cell loss of greater than 50 percent at a concentration that equals or is greater than 25 μM was represented as) | + (“+” equals >25 μM) |
| c1ccc2c(NC3CCCCC3)nc(-c3ccncc3)nc2c1 [Compound 170] | + (cell loss of greater than 50 percent at a concentration that equals or is greater than 25 μM was represented as) | + (“+” equals >25 μM) |
| c1cnc2cc(-c3ccncc3)nc(Nc3ccc4nc(C5CC5)sc4c3)c2c1 [Compound 241] | + (cell loss of greater than 50 percent at a concentration that equals or is greater than 25 μM was represented as) | +++ (“+++” equals ≤1 μM) |
| N#Cc1nc2ccc(Nc3nc(-c4ccncc4)nc4ccccc34)cc2s1 [Compound 87] | + (cell loss of greater than 50 percent at a concentration that equals or is greater than 25 μM was represented as) | + (“+” equals >25 μM) |
| c1cnc2nc(-c3cncs3)nc(Nc3ccc4[nH]ccc4c3)c2c1 [Compound 386] | + (cell loss of greater than 50 percent at a concentration that equals or is greater than 25 μM was represented as) | +++ (“+++” equals ≤1 μM) |
| CC(=O)c1cc(F)cc(Nc2nc(-c3ccncc3)nc3ccccc23)c1 [Compound 51] | + (cell loss of greater than 50 percent at a concentration that equals or is greater than 25 μM was represented as) | + (“+” equals >25 μM) |
| CCc1nc2ccc(Nc3nc(-c4ccncc4)nc4ccccc34)cc2s1 [Compound 90] | + (cell loss of greater than 50 percent at a concentration that equals or is greater than 25 μM was represented as) | +++ (“+++” equals ≤1 μM) |
| Cc1nc2cc(Cl)c(Nc3nc(-c4ccncc4)nc4ccccc34)cc2o1 [Compound 143] | + (cell loss of greater than 50 percent at a concentration that equals or is greater than 25 μM was represented as) | +++ (“+++” equals ≤1 μM) |
| c1ccc2c(Nc3ccc4cnsc4c3)nc(-c3ccncc3)nc2c1 [Compound 24] | + (cell loss of greater than 50 percent at a concentration that equals or is greater than 25 μM was represented as) | +++ (“+++” equals ≤1 μM) |
| O=C(Cn1c(=O)n(CC2CCCO2)c(=O)c2ccc(C(=O)NCCc3ccccc3)cc21)Nc1ccc(Br)cc1 (stereo not shown) [Compound 217] | + (cell loss of greater than 50 percent at a concentration that equals or is greater than 25 μM was represented as) | + (“+” equals >25 μM) |
| COc1ccc2nc(-c3ccncc3)nc(Nc3ccc4nc(C(C)C)sc4c3)c2c1 [Compound 376] | + (cell loss of greater than 50 percent at a concentration that equals or is greater than 25 μM was represented as) | +++ (“+++” equals ≤1 μM) |
| CCc1nc2ccc(Nc3nc(-c4ccncc4)nc4ccc(F)cc34)cc2s1 [Compound 151] | + (cell loss of greater than 50 percent at a concentration that equals or is greater than 25 μM was represented as) | +++ (“+++” equals ≤1 μM) |
| Cc1c(-c2ccncc2)nc(Nc2ccc3nc(C4CC4)sc3c2)c2cccnc12 [Compound 333] | + (cell loss of greater than 50 percent at a concentration that equals or is greater than 25 μM was represented as) | +++ (“+++” equals ≤1 μM) |
| Cc1cccc(Nc2nc(-c3ccncc3)nc3ccccc23)c1 [Compound 185] | + (cell loss of greater than 50 percent at a concentration that equals or is greater than 25 μM was represented as) | +++ (“+++” equals ≤1 μM) |
| CCc1cc(F)cc(Nc2nc(-c3ccncc3)nc3ccccc23)c1 [Compound 21] | + (cell loss of greater than 50 percent at a concentration that equals or is greater than 25 μM was represented as) | + (“+” equals >25 μM) |
| c1cnc2cc(-c3ccncc3)nc(Nc3ccc4nc(C5CCC5)sc4c3)c2c1 [Compound 402] | + (cell loss of greater than 50 percent at a concentration that equals or is greater than 25 μM was represented as) | +++ (“+++” equals ≤1 μM) |
| COc1ccc2nc(-c3ccncc3)nc(Nc3ccc4nc(C(C)C)sc4c3)c2c1 [Compound 353] | + (cell loss of greater than 50 percent at a concentration that equals or is greater than 25 μM was represented as) | ++ (“++” equals between ≤25 μM and >1 μM) |
